Measurements published in patent US20240376108A1, “SALT AND CRYSTAL FORM OF PYRAZOLE-CONTAINING POLYCYCLIC DERIVATIVE, AND PREPARATION METHOD THEREFOR AND USE THEREOF” (Shanghai Hansoh Biomedical Co., Ltd., priority 2021, published 2024).

Key:
[1] = Metabolic stability in liver microsome (human); assay type: in vitro ADME; settings: for Human t1/2: human liver microsome 0.5 mg/mL, compound 1 μM, NADPH/UDPGA; for Human Remaining (%, 60 min): human liver microsome
Description: (§1) Test Example 5. Assay of Metabolic Stability in Liver Microsome
(§2) 1. Experimental objective: The objective of the experiment is to determine the stability of the compounds of the Examples in liver microsome of mouse, rat, dog and human.
(§3) 2.1 Formulation of the working solution of the compound: Formulation of the working solution of the compound: The stock solution of the compound was added to phosphate buffer, and the final concentration was 20 μM.
(§4) 2.2 Formulation of the working solution of liver microsome: Liver microsome was diluted with 100 mM phosphate buffer to obtain a final concentration of 0.625 mg/mL.
(§5) 2.3 Formulation of NADPH and UDPGA: NADPH (reduced nicotinamide adenine dinucleotide phosphate) and UDPGA (uridine diphosphate glucuronic acid) were weighed respectively, followed by addition of 100 mM phosphate buffer. The final concentrations were 20 mM.
(§6) 2.4 Formulation of the channel-forming reagent: 1 mg of Alamethicin was weighed, to which 200 μL of DMSO was added to obtain a 5 mg/mL solution. The solution was diluted with phosphate buffer to obtain a final concentration of 50 μg/mL.
(§7) 2.5 Formulation of the reaction stop solution: Stop solution: Cold acetonitrile containing 100 ng/mL labetalol hydrochloride and 400 ng/mL tolbutamide as internal standards.
(§8) 2.6 Incubation procedure: 400 μL of the prepared liver microsome, 25 μL of the working solution of the compound and 25 μL of Alamethicin were added to a 96-well plate successively, which was then pre-incubated at 37° C. for 10 minutes. 50 μL of the prepared NADPH/UDPGA was added to initiate the reaction, and the plate was incubated at 37° C. The total volume of the reaction system was 500 μL. The final contents of the components were as follows:
(§9) 2.7.1 Chromatographic conditions: • Instrument: Shimadzu LC-30 AD; Chromatographic column: XBridge® C18 (50*4.6 mm, particle size: 5 μm); • Mobile phase: A: 0.1% formic acid solution, B: methanol • Eluent gradient: 0.2˜1.6 min 5% A to 95% A, 3.0˜3.1 min 95% A to 5% A • Running time: 4.0 min.
(§10) 2.7.2 Mass spectrometry conditions: • Instrument: API5500 liquid chromatography-mass spectrometer, AB Sciex; • Ion source: Electrospray ionization source (ESI); Drying gas: N2, temperature: 500° C.; • Electrospray voltage: 5000V; Detection method: Positive ion detection; • Scanning mode: Mode of reaction monitoring (MRM).

[2] = Metabolic stability in liver microsome (mouse); assay type: in vitro ADME
Description: as §1, §2, §3, §4, §5, §6, §7, §8, §9, §10

[3] = Metabolic stability in liver microsome (rat); assay type: in vitro ADME; settings: for Rat Remaining (%, 60 min): rat liver microsome
Description: as §1, §2, §3, §4, §5, §6, §7, §8, §9, §10

BALB/c mice = test: Taste sensitivity assay in BALB/c mice (quinine solution intake); assay type: in vivo; settings: 30 mpk; for Solution consumption of single mouse, Quinine solution: 3 mmol/L quinine hydrochloride, 30 min
Excerpt: Test Example 9. Taste Sensitivity Assay in BALB/c Mice
1. Experimental objective: In this assay, compounds with less toxic and side effects on animal taste were screened by quinine bitter solution experiment.
2.2 Reagents: Quinine monohydrochloride dihydrate (6119-47-7, Adamas).
2.3 Animals: BALB/c mice, 6 to 8 weeks old, ♂, purchased from Shanghai SIPPR-BK Laboratory Animal Co., Ltd.
3.1 Animal screening: One day before the experiment, all BALB/c mice were weighed, and animals with too high or too low body weight were excluded.
3.2 Grouping and water deprivation: BALB/c mice were randomly grouped according to body weight, and were deprived of water 12 to 16 hours before administration with no fasting.
3.3 Formulation of aqueous solution of quinine: An appropriate amount of quinine monohydrochloride dihydrate was weighed and formulated into an aqueous solution quinine hydrochloride (concentration: 3 mmol/L) with ultrapure water for later use.
3.4 Formulation of test compound: An appropriate amount of the test compound was weighed and formulated into the target concentration with the corresponding solvent according to the experimental design for later use.
3.5 Administration and quinine solution intake assay in animal: Administration and fasting: On the day of the experiment, the animals were weighed and fasted, bedding was changed, and the compounds were administered according to the experimental design.
1. The corresponding clean mouse drinking bottle was rinsed 2 to 3 times with ultrapure water and the formulated 3 mmol/L aqueous solution of quinine hydrochloride respectively. The bottle was filled and weighed, and the weight was recorded as Wi0.
2. According to the experimental design, a certain period after administration, the filled bottle was gently placed in the corresponding mouse cage, and the timing was started. After 30 min, the bottle was gently taken out and weighed, and the weight was recorded as Wi30.
3. Calculation of solution consumption of animals in each group: ΔWW(g)=[…]; calculation of solution consumption of single mouse: ΔpWW(g)=ΔWW/N, N is the number of animals in each group.
4. Dysgeusia rate=(ΔpWW of the group in which the drinking water was the aqueous solution of quinine hydrochloride and the test compound was administered at the same time−ΔpWW of the group in which the drinking water was the aqueous solution of quinine hydrochloride and the solvent control was administered at the same time)/(ΔpWW of the group in which the drinking water was ultrapure water and the solvent control was administered at the same time−ΔpWW of the group in which the drinking water was the aqueous solution of quinine hydrochloride and the solvent control was administered at the same time)×100%. Data processing was performed with software such as Excel.

[4] = Metabolic stability in liver microsome (dog); assay type: in vitro ADME; settings: for Dog Remaining (%, 60 min): dog liver microsome
Description: as §1, §2, §3, §4, §5, §6, §7, §8, §9, §10

SMILES	Human t1/2 [1]	Human Remaining (%, 60 min) [1] [%]	Mouse Remaining (%, 60 min) [2] [%]	Rat Remaining (%, 60 min) [3] [%]	Dysgeusia rate (BALB/c mice) [%]	Solution consumption of single mouse, Quinine solution (BALB/c mice) [g]	Dog t1/2 ([4]; dog liver microsome 0.5 mg/mL, compound 1 μM, NADPH/UDPGA) [h]	Dog Remaining (%, 60 min) [4] [%]	Rat t1/2 ([3]; rat liver microsome 0.5 mg/mL, compound 1 μM, NADPH/UDPGA)
CCc1cc2n(CC(=O)Nc3ccc(F)cn3)c(=O)c3ccc(C(F)(F)F)nc3n2n1 [Example 12, 2-(2-Ethyl-5-oxo-8-(trifluoromethyl)pyrazolo[1,5-a]pyrido[3,2-e]pyrimidin-4(5H)-yl)-N-(5-fluoropyridin-2-yl)acetamide]	∞	113.9	81.3	104.4	–	–	–	–	–
O=C(Cn1c(=O)c2ccc(C(F)(F)F)nc2n2nc(Br)cc12)Nc1ccc(F)cn1 [Example 15, 2-(2-bromo-5-oxo-8-(trifluoromethyl)pyrazolo[1,5-a]pyrido[3,2-e]pyrimidin-4(5H)-yl)-N-(5-fluoropyridin-2-yl)acetamide]	∞	100.4	92.5	102.3	−3.77	0.048	15.62	96.0	–
N#Cc1cc2n(CC(=O)Nc3ccc(F)cn3)c(=O)c3ccc(C(F)(F)F)nc3n2n1 [Example 17, 2-(2-Cyano-5-oxo-8-(trifluoromethyl)pyrazolo[1,5-a]pyrido[3,2-e]pyrimidin-4(5H)-yl)-N-(5-fluoropyridin-2-yl)acetamide]	–	101.2	91.6	106.4	−2.26	0.056	–	99.0	∞
O=C(Cn1c(=O)c2ccc(C(F)(F)F)nc2n2nccc12)Nc1ccc(F)cn1 [Example 18, N-(5-Fluoropyridin-2-yl)-2-(5-oxo-8-(trifluoromethyl)pyrazolo[1,5-a]pyrido[3,2-e]pyrimidin-4(5H)-yl)acetamide]	–	97.5	99.3	98.9	−9.81	0.016	–	93.4	–
